Assay results from patent US6555692B1, “Preparation and use of bifunctional molecules having DNA sequence binding specificity” (California Institute of Technology, priority 1996, dated 2003).

Legend:
[1] = test system: 5′-AACCAAGTCTTGGTA-3′; assay: Association constants, recognition of 15 base pairs; settings: for Specificity Center mismatch: match vs 5′-AACCAACTGTTGGTA-3′; for Specificity Edge mismatch: match vs 5′-AACCAAGTCTTGCGA-3′; for Ka 5′-AACCAAGTCTTGGTA-3′: Table 7, C3-OH polyamides, match site; for Specificity 5′-AACCAACTGTTGGTA-3′: Table 7, center mismatch; for Specificity 5′-AACCAAGTCTTGCGA-3′: Table 7, edge mismatch
[2] = test system: 5′-TGTCAAAGACA-3′; assay: Recognition of 9-11 base pairs (Table 9); format: binding; settings: 22° C. and pH 7.0
From the text: (§1) Table 9 illustrates recognition of recognition of 9-11 base pairs by ImPyPy-X-ImPyPy-β-Dp.

[3] = test system: 5′-TGTCAAGACA-3′; assay: Recognition of 9-11 base pairs (Table 9); format: binding; settings: 22° C. and pH 7.0
From the text: as §1

[4] = test system: 5′-TGTCAGACA-3′; assay: Recognition of 9-11 base pairs (Table 9); format: binding; settings: 22° C. and pH 7.0
From the text: as §1

[5] = test system: 5′-gcggtTGTCAacccg-3′; assay: Recognition of 9-11 base pairs (Table 9); format: binding; settings: 22° C. and pH 7.0
From the text: as §1

[6] = test system: 5 to 10 base pair sites based on a 5′-TGACA-3′ core sequence; assay: Footprint titration of three- to eight-ring polyamide dimers (Table 2); format: binding; settings: 22° C., pH 7.0; for association constant: mean of at least three footprint titrations
From the text: To determine the effect of polyamide length on binding site size, binding affinity, and sequence specificity, a series of six polyamides containing three to eight rings was synthesized. (Kelly, et al. Proc. Natl. Acad. Sci. U.S.A. 93, 6981-6985 (1996).) The series is based on ImPyPy-Dp with pyrrolecarboxamide moieties added sequentially to the C-termini to afford ImPyPyPy-Dp, ImPyPyPyPy-Dp, ImPyPyPyPyPy-Dp, ImPyPyPyPyPyPy-Dp, and ImPyPyPyPyPyPyPy-Dp which are designed to bind 5 to 10 base pair sites, respectively as side-by-side antiparallel dimers. DNA binding sites are based on a 5′-TGACA-3′ core sequence and contain sequential A,T inserts in the center of the binding site that will be recognized by the additional pyrrole carboxamides.

[7] = Table 6, ImImPy-γ-PyPyPy-X-ImPyPy-β-Dp
[8] = Table 5, ImPyPy-X-ImImPy-γ-PyPyPy-β-Dp, 24° C., pH 7.0

With `CN(C)CCCNC(=O)CCNC(=O)c1cc(NC(=O)c2cc(NC(=O)c3nc(NC(=O)CCCCNC(=O)c4cc(NC(=O)c5cc(NC(=O)c6cc(NC(=O)CCCNC(=O)c7cc(NC(=O)c8nc(NC(=O)c9nccn9C)cn8C)cn7C)cn6C)cn5C)cn4C)cn3C)cn2C)cn1C` [ImImPy-γ-PyPyPy-C5-ImPyPy-β-Dp, ImImPy-γ-PyPyPy-X-ImPyPy-β-Dp] the “Ka Match” value [1, 7] was 1e+09 M⁻¹, the “Specificity Center mismatch” value ([1]; Table 6) was 2 and the “Specificity Edge mismatch” value ([1]; Table 6) was 2.
In the case of `CN(C)CCCNC(=O)CCNC(=O)c1cc(NC(=O)c2cc(NC(=O)c3nc(NC(=O)CCCCCNC(=O)c4cc(NC(=O)c5cc(NC(=O)c6cc(NC(=O)CCCNC(=O)c7cc(NC(=O)c8nc(NC(=O)c9nccn9C)cn8C)cn7C)cn6C)cn5C)cn4C)cn3C)cn2C)cn1C` [ImImPy-γ-PyPyPy-C6-ImPyPy-β-Dp, ImImPy-γ-PyPyPy-X-ImPyPy-β-Dp], the “Ka Match” value [1, 7] is reported as 2e+08 M⁻¹, the “Specificity Center mismatch” value ([1]; Table 6) is reported as 1 and the “Specificity Edge mismatch” value ([1]; Table 6) is reported as 2.
For `CN(C)CCCNC(=O)CCNC(=O)c1cc(NC(=O)c2cc(NC(=O)c3nc(NC(=O)CCCCCCNC(=O)c4cc(NC(=O)c5cc(NC(=O)c6cc(NC(=O)CCCNC(=O)c7cc(NC(=O)c8nc(NC(=O)c9nccn9C)cn8C)cn7C)cn6C)cn5C)cn4C)cn3C)cn2C)cn1C` [ImImPy-γ-PyPyPy-C7-ImPyPy-β-Dp, ImImPy-γ-PyPyPy-X-ImPyPy-β-Dp], the “Ka Match” value [1, 7] was 1e+09 M⁻¹, the “Specificity Center mismatch” value ([1]; Table 6) was 1 and the “Specificity Edge mismatch” value ([1]; Table 6) was 1.
For `CN(C)CCCNC(=O)CCNC(=O)c1cc(NC(=O)c2cc(NC(=O)c3nc(NC(=O)CCNC(=O)CCNC(=O)c4cc(NC(=O)c5cc(NC(=O)c6cc(NC(=O)CCCNC(=O)c7cc(NC(=O)c8nc(NC(=O)c9nccn9C)cn8C)cn7C)cn6C)cn5C)cn4C)cn3C)cn2C)cn1C` [ImImPy-γ-PyPyPy-β-β-ImPyPy-β-Dp, ImImPy-γ-PyPyPy-X-ImPyPy-β-Dp], the “Ka Match” value [1, 7] was 1e+10 M⁻¹, the “Specificity Center mismatch” value ([1]; Table 6) was 1 and the “Specificity Edge mismatch” value ([1]; Table 6) was 1.
`Cn1cc(NC(=O)c2cc(NC(=O)c3cc(NC(=O)CCCNC(=O)c4cc(NC(=O)c5nc(NC(=O)c6nc(NC(=O)CCCCNC(=O)c7cc(NC(=O)c8cc(NC(=O)c9nccn9C)cn8C)cn7C)cn6C)cn5C)cn4C)cn3C)cn2C)cc1C(=O)NCCCO` [ImPyPy-C5-ImImPy-γ-PyPyPy-C3—OH] was tested, and the “Ka 5′-AACCAAGTCTTGGTA-3′” value [1] was 3 × 10^7, the “Specificity 5′-AACCAACTGTTGGTA-3′” value [1] was over 3 and the “Specificity 5′-AACCAAGTCTTGCGA-3′” value [1] was over 3.
For `CN(C)CCCNC(=O)CCNC(=O)c1cc(NC(=O)c2cc(NC(=O)c3cc(NC(=O)CCCNC(=O)c4cc(NC(=O)c5nc(NC(=O)c6nc(NC(=O)CCCCNC(=O)c7cc(NC(=O)c8cc(NC(=O)c9nccn9C)cn8C)cn7C)cn6C)cn5C)cn4C)cn3C)cn2C)cn1C` [ImPyPy-C5-ImImPy-γ-PyPyPy-β-Dp, ImPyPy-X-ImImPy-γ-PyPyPy-β-Dp], the “Ka Match” value [1, 8] was 4e+08 M⁻¹, the “Specificity Center mismatch” value ([1]; Table 5) was 11 and the “Specificity Edge mismatch” value ([1]; Table 5) was 19.
For `CN(C)CCCNC(=O)CCNC(=O)c1cc(NC(=O)c2cc(NC(=O)c3nc(NC(=O)CCCCNC(=O)c4cc(NC(=O)c5cc(NC(=O)c6nccn6C)cn5C)cn4C)cn3C)cn2C)cn1C` [ImPyPy-C5-ImPyPy-β-Dp], the “5′-TGTCAAAGACA-3′” value [2] was 1 × 10^9, the “5′-TGTCAAGACA-3′” value [3] was 1 × 10^9 and the “5′-TGTCAGACA-3′” value [4] was 2 × 10^8. For the same molecule, the “5′-gcggtTGTCAacccg-3′” value [5] was 1 × 10^9.
In the case of `Cn1cc(NC(=O)c2cc(NC(=O)c3cc(NC(=O)CCCNC(=O)c4cc(NC(=O)c5nc(NC(=O)c6nc(NC(=O)CCCCCNC(=O)c7cc(NC(=O)c8cc(NC(=O)c9nccn9C)cn8C)cn7C)cn6C)cn5C)cn4C)cn3C)cn2C)cc1C(=O)NCCCO` [ImPyPy-C6-ImImPy-γ-PyPyPy-C3—OH], the “Ka 5′-AACCAAGTCTTGGTA-3′” value [1] is reported as 3 × 10^7, the “Specificity 5′-AACCAACTGTTGGTA-3′” value [1] is reported as 2 and the “Specificity 5′-AACCAAGTCTTGCGA-3′” value [1] is reported as 2.
In the case of `CN(C)CCCNC(=O)CCNC(=O)c1cc(NC(=O)c2cc(NC(=O)c3cc(NC(=O)CCCNC(=O)c4cc(NC(=O)c5nc(NC(=O)c6nc(NC(=O)CCCCCNC(=O)c7cc(NC(=O)c8cc(NC(=O)c9nccn9C)cn8C)cn7C)cn6C)cn5C)cn4C)cn3C)cn2C)cn1C` [ImPyPy-C6-ImImPy-γ-PyPyPy-β-Dp, ImPyPy-X-ImImPy-γ-PyPyPy-β-Dp], the “Ka Match” value [1, 8] is reported as 2e+08 M⁻¹, the “Specificity Center mismatch” value ([1]; Table 5) is reported as 12 and the “Specificity Edge mismatch” value ([1]; Table 5) is reported as 15.
`CN(C)CCCNC(=O)CCNC(=O)c1cc(NC(=O)c2cc(NC(=O)c3cc(NC(=O)CCCNC(=O)c4cc(NC(=O)c5nc(NC(=O)c6nc(NC(=O)CCCCCCNC(=O)c7cc(NC(=O)c8cc(NC(=O)c9nccn9C)cn8C)cn7C)cn6C)cn5C)cn4C)cn3C)cn2C)cn1C` [ImPyPy-C7-ImImPy-γ-PyPyPy-β-Dp, ImPyPy-X-ImImPy-γ-PyPyPy-β-Dp] was tested, and the “Ka Match” value [1, 8] was 2e+08 M⁻¹, the “Specificity Center mismatch” value ([1]; Table 5) was 2 and the “Specificity Edge mismatch” value ([1]; Table 5) was 2.
`CN(C)CCCNC(=O)CCNC(=O)c1cc(NC(=O)c2cc(NC(=O)c3cc(NC(=O)CCCNC(=O)c4cc(NC(=O)c5nc(NC(=O)c6nc(NC(=O)CCCCCCCNC(=O)c7cc(NC(=O)c8cc(NC(=O)c9nccn9C)cn8C)cn7C)cn6C)cn5C)cn4C)cn3C)cn2C)cn1C` [ImPyPy-C8-ImImPy-γ-PyPyPy-β-Dp, ImPyPy-X-ImImPy-γ-PyPyPy-β-Dp] was tested, and the “Ka Match” value [1, 8] was 2e+08 M⁻¹, the “Specificity Center mismatch” value ([1]; Table 5) was 10 and the “Specificity Edge mismatch” value ([1]; Table 5) was 10.
In the case of `CN(C)CCCNC(=O)c1cc(NC(=O)c2cc(NC(=O)c3nccn3C)cn2C)cn1C` [ImPyPy-Dp], the “specificity (ratio of match site affinity to affinity of the single base pair mismatch site)” value [6] is reported as 6.5-fold and the association constant [6] is reported as 130000 M⁻¹.
In the case of `CN(C)CCCNC(=O)CCNC(=O)c1cc(NC(=O)c2cc(NC(=O)c3cc(NC(=O)CCCNC(=O)c4cc(NC(=O)c5nc(NC(=O)c6nc(NC(=O)CCCCNC(=O)CCNC(=O)c7cc(NC(=O)c8cc(NC(=O)c9nccn9C)cn8C)cn7C)cn6C)cn5C)cn4C)cn3C)cn2C)cn1C` [ImPyPy-β-C5-ImImPy-γ-PyPyPy-β-Dp, ImPyPy-X-ImImPy-γ-PyPyPy-β-Dp], the “Ka Match” value [1, 8] is reported as 1e+08 M⁻¹, the “Specificity Center mismatch” value ([1]; Table 5) is reported as 2 and the “Specificity Edge mismatch” value ([1]; Table 5) is reported as 2.
For `Cn1cc(NC(=O)c2cc(NC(=O)c3cc(NC(=O)CCCNC(=O)c4cc(NC(=O)c5nc(NC(=O)c6nc(NC(=O)CCNC(=O)CCNC(=O)c7cc(NC(=O)c8cc(NC(=O)c9nccn9C)cn8C)cn7C)cn6C)cn5C)cn4C)cn3C)cn2C)cc1C(=O)NCCCO` [ImPyPy-β-β-ImImPy-γ-PyPyPy-C3—OH], the “Ka 5′-AACCAAGTCTTGGTA-3′” value [1] was 1 × 10^8, the “Specificity 5′-AACCAACTGTTGGTA-3′” value [1] was 3 and the “Specificity 5′-AACCAAGTCTTGCGA-3′” value [1] was 3.
For `CN(C)CCCNC(=O)CCNC(=O)c1cc(NC(=O)c2cc(NC(=O)c3cc(NC(=O)CCCNC(=O)c4cc(NC(=O)c5nc(NC(=O)c6nc(NC(=O)CCNC(=O)CCNC(=O)c7cc(NC(=O)c8cc(NC(=O)c9nccn9C)cn8C)cn7C)cn6C)cn5C)cn4C)cn3C)cn2C)cn1C` [ImPyPy-β-β-ImImPy-γ-PyPyPy-β-Dp, ImPyPy-X-ImImPy-γ-PyPyPy-β-Dp], the “Ka Match” value [1, 8] was 3e+08 M⁻¹, the “Specificity Center mismatch” value ([1]; Table 5) was 2 and the “Specificity Edge mismatch” value ([1]; Table 5) was 2.
With `CN(C)CCCNC(=O)CCNC(=O)c1cc(NC(=O)c2cc(NC(=O)c3cc(NC(=O)CCCNC(=O)c4cc(NC(=O)c5nc(NC(=O)c6nc(NC(=O)CCCNC(=O)c7cc(NC(=O)c8cc(NC(=O)c9nccn9C)cn8C)cn7C)cn6C)cn5C)cn4C)cn3C)cn2C)cn1C` [ImPyPy-γ-ImImPy-γ-PyPyPy-β-Dp, ImPyPy-X-ImImPy-γ-PyPyPy-β-Dp] the “Ka Match” value [1, 8] was 1e+07 M⁻¹, the “Specificity Center mismatch” value ([1]; Table 5) was 1 and the “Specificity Edge mismatch” value ([1]; Table 5) was 1.
In the case of `CN(C)CCCNC(=O)c1cc(NC(=O)c2cc(NC(=O)c3cc(NC(=O)c4nccn4C)cn3C)cn2C)cn1C` [ImPyPyPy-Dp], the “specificity (ratio of match site affinity to affinity of the single base pair mismatch site)” value [6] is reported as 5.3-fold and the association constant [6] is reported as 8.5e+06 M⁻¹.
With `CN(C)CCCNC(=O)c1cc(NC(=O)c2cc(NC(=O)c3cc(NC(=O)c4cc(NC(=O)c5cc(NC(=O)c6cc(NC(=O)c7nccn7C)cn6C)cn5C)cn4C)cn3C)cn2C)cn1C` [ImPyPyPyPyPyPy-Dp] the “specificity (ratio of match site affinity to affinity of the single base pair mismatch site)” value [6] was 2.8-fold and the association constant [6] was 4.7e+07 M⁻¹.
For ImPyPyPyPy-Dp, the “specificity (ratio of match site affinity to affinity of the single base pair mismatch site)” value [6] was 5.7-fold and the association constant [6] was 4.5e+07 M⁻¹.
With ImPyPyPyPyPy-Dp the “specificity (ratio of match site affinity to affinity of the single base pair mismatch site)” value [6] was 2.7-fold and the association constant [6] was 5.3e+07 M⁻¹.
ImPyPyPyPyPyPyPy-Dp was tested, and the “specificity (ratio of match site affinity to affinity of the single base pair mismatch site)” value [6] was 1-fold and the association constant [6] was under 2e+07 M⁻¹.
